Source: ChEMBL document CHEMBL1143364, “Preliminary evaluation of pharmacological properties of some xanthone derivatives” (Bioorg Med Chem, 2009)
Active and inactive are the calls of the source. The calls are words filed in the database; no cut-off is given here.

How the values were obtained:
Rattus norvegicus [1] = assay: Cardiotoxicity in Wistar rat assessed as decrease in cardiac beats per minute at 5 mg/kg, iv by ECG; type: toxicity, organism-based, Heart; set-up: dose 5 mg/kg, route intravenous; scale not given: the % may be the effect or the level left; details: in vivo
Rattus norvegicus [2] = assay: Cardiotoxicity in Wistar rat assessed as prolongation of PQ interval at 5 mg/kg, iv by ECG; type: toxicity, organism-based; set-up: dose 5 mg/kg, route intravenous; details: in vivo
Rattus norvegicus [3] = assay: Antiarrhythmic activity in anaesthetized iv dosed Wistar rat assessed as decrease in adrenaline-induced cardiac rhythm disturbance administered 15 mins before adrenaline challenge; type: functional; details: Heart
Rattus norvegicus [4] = assay: Hypotensive activity in normotensive Wistar rat assessed as reduction in diastolic blood pressure at 2.5 mg/kg, iv; type: functional, organism-based; set-up: dose 2.5 mg/kg; details: Artery
[5] = target: T1, Adrenergic receptor alpha-1 (Rattus norvegicus, UniProt P15823+P23944+P43140); assay: Displacement of [3H]prazosin from alpha1 adrenergic receptor in rat cerebral cortex by liquid scintillation counting; type: tissue-based
T1 sequence (P15823 whole entry): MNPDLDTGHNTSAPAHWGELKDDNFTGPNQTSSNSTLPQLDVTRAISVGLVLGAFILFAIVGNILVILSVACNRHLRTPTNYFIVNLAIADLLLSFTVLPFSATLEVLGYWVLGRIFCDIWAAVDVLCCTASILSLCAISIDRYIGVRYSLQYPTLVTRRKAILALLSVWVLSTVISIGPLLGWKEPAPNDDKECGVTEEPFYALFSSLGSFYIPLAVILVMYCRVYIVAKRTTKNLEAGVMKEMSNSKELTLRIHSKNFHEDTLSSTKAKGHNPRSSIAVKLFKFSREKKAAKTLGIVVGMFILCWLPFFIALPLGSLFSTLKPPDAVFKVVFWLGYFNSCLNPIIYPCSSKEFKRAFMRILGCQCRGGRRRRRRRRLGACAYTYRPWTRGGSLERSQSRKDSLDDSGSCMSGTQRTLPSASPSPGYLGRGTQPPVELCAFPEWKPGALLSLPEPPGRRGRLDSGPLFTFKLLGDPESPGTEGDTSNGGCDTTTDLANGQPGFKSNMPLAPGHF
T1 sequence (P23944 whole entry): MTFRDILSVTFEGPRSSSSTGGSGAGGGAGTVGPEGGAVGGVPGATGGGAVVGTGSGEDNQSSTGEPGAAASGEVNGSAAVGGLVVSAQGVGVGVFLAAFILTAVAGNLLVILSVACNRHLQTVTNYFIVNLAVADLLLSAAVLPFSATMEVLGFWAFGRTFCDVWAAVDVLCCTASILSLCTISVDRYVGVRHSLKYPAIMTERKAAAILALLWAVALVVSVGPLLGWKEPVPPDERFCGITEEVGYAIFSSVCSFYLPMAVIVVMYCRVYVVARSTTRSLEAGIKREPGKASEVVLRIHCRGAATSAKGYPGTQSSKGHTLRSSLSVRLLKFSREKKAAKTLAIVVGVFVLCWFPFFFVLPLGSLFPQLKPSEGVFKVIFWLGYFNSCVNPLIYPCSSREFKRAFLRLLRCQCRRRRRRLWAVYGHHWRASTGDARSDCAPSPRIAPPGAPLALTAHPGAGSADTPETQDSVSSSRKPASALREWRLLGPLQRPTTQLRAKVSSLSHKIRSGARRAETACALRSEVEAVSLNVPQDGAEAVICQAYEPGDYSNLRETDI
T1 sequence (P43140 whole entry): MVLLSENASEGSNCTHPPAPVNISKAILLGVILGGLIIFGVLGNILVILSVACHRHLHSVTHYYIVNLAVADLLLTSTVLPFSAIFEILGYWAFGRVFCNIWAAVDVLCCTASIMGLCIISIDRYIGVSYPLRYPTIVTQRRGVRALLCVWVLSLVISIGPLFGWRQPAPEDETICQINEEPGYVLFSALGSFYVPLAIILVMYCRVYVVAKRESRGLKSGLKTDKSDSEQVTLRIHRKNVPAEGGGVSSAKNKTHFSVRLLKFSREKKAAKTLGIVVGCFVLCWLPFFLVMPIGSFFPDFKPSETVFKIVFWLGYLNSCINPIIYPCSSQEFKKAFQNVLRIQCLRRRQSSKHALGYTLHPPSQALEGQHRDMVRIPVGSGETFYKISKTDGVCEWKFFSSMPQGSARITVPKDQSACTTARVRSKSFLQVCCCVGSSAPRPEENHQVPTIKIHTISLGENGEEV

Mus musculus [6] = assay: Anticonvulsant activity in CF1 mouse assessed as inhibition of maximal electroshock-induced seizures at 30 mg/kg, ip after 0.5 hrs; type: functional, organism-based; set-up: dose 30 mg/kg
Mus musculus [7] = assay: Anticonvulsant activity in CF1 mouse assessed as inhibition of maximal electroshock-induced seizures at 100 mg/kg, ip after 0.5 hrs; type: functional, organism-based; set-up: dose 100 mg/kg
Mus musculus [8] = assay: Anticonvulsant activity in CF1 mouse assessed as inhibition of maximal electroshock-induced seizures at 300 mg/kg, ip after 0.5 hrs; type: functional, organism-based; set-up: dose 300 mg/kg
Mus musculus [9] = assay: Anticonvulsant activity in CF1 mouse assessed as inhibition of maximal electroshock-induced seizures at 30 mg/kg, ip after 4 hrs; type: functional, organism-based; set-up: dose 30 mg/kg
Mus musculus [10] = assay: Anticonvulsant activity in CF1 mouse assessed as inhibition of maximal electroshock-induced seizures at 100 mg/kg, ip after 4 hrs; type: functional, organism-based; set-up: dose 100 mg/kg
Mus musculus [11] = assay: Anticonvulsant activity in CF1 mouse assessed as inhibition of maximal electroshock-induced seizures at 300 mg/kg, ip after 4 hrs; type: functional, organism-based; set-up: dose 300 mg/kg
Mus musculus [12] = assay: Anticonvulsant activity in CF1 mouse assessed as inhibition of subcutaneous pentylenetetrazole-induced seizures; type: functional, organism-based
Mus musculus [13] = assay: Neurotoxicity in CF1 mouse at 30 mg/kg, ip after 0.5 hrs by rotarod test; type: toxicity, organism-based; set-up: dose 30 mg/kg, route intraperitoneal; details: in vivo
Mus musculus [14] = assay: Neurotoxicity in CF1 mouse at 100 mg/kg, ip after 0.5 hrs by rotarod test; type: toxicity, organism-based; set-up: dose 100 mg/kg, route intraperitoneal; details: in vivo
Mus musculus [15] = assay: Neurotoxicity in CF1 mouse at 300 mg/kg, ip after 0.5 hrs by rotarod test; type: toxicity, organism-based; set-up: dose 300 mg/kg, route intraperitoneal; details: in vivo
Mus musculus [16] = assay: Neurotoxicity in CF1 mouse at 30 mg/kg, ip after 4 hrs by rotarod test; type: toxicity, organism-based; set-up: dose 30 mg/kg, route intraperitoneal; details: in vivo
Mus musculus [17] = assay: Neurotoxicity in CF1 mouse at 100 mg/kg, ip after 4 hrs by rotarod test; type: toxicity, organism-based; set-up: dose 100 mg/kg, route intraperitoneal; details: in vivo
Mus musculus [18] = assay: Neurotoxicity in CF1 mouse at 300 mg/kg, ip after 4 hrs by rotarod test; type: toxicity, organism-based; set-up: dose 300 mg/kg, route intraperitoneal; details: in vivo
[19] = target: Beta-1 adrenergic receptor (Rattus norvegicus, UniProt P18090); assay: biochemical
Chain of Beta-1 adrenergic receptor (P18090 whole entry): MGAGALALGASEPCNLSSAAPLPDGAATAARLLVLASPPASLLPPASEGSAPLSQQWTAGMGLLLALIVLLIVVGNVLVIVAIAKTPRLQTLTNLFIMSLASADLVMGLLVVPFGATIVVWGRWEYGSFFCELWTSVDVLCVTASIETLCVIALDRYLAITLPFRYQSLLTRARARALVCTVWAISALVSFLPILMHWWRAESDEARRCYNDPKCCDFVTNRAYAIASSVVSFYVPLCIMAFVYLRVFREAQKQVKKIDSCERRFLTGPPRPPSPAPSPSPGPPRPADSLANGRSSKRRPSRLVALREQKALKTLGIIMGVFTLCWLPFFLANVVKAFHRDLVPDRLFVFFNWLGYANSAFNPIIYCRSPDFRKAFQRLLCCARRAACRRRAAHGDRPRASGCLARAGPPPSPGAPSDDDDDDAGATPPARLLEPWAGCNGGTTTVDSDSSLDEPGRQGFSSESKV
Description: Displacement of [3H]CGP12177 from beta-1 adrenergic receptor in rat cerebral cortex by liquid scintillation counting

Rattus norvegicus [20] = assay: Hypotensive activity in normotensive Wistar rat assessed as reduction in blood pressure at 10 mg/kg, iv after 60 mins; type: functional, organism-based; set-up: dose 10 mg/kg
Rattus norvegicus [21] = assay: Cardiotoxicity in Wistar rat assessed as decrease in cardiac beats per minute at 10 mg/kg, iv by ECG; type: toxicity, organism-based, Heart; set-up: dose 10 mg/kg, route intravenous; scale not given: the % may be the effect or the level left; details: in vivo
Rattus norvegicus [22] = assay: Cardiotoxicity in Wistar rat assessed as prolongation of PQ interval at 10 mg/kg, iv by ECG; type: toxicity, organism-based; set-up: dose 10 mg/kg, route intravenous; details: in vivo
Rattus norvegicus [23] = assay: Cardiotoxicity in Wistar rat assessed as prolongation of QT interval at 10 mg/kg, iv by ECG; type: toxicity, organism-based; set-up: dose 10 mg/kg, route intravenous; details: in vivo
Rattus norvegicus [24] = assay: Antiarrhythmic activity in anaesthetized Wistar rat assessed as decrease in arrhythmia-induced mortality at 1.25 mg/kg, iv administered 15 mins before adrenaline challenge; type: functional, Heart; set-up: scale not given: the % may be the effect or the level left
Rattus norvegicus [25] = assay: Hypotensive activity in normotensive Wistar rat assessed as reduction in blood pressure at 0.625 mg/kg, iv after 60 mins; type: functional, organism-based; set-up: dose 0.625 mg/kg
Rattus norvegicus [26] = assay: Hypotensive activity in normotensive Wistar rat assessed as reduction in systolic blood pressure at 1.25 mg/kg, iv; type: functional, Artery; set-up: scale not given: the % may be the effect or the level left
Rattus norvegicus [27] = assay: Hypotensive activity in normotensive Wistar rat assessed as reduction in diastolic blood pressure at 1.25 mg/kg, iv; type: functional, Artery; set-up: scale not given: the % may be the effect or the level left

SMILES	ED50 (Rattus norvegicus [3])	Ki [5]	Activity (Mus musculus [6])	Activity (Mus musculus [7])	Activity (Mus musculus [8])	Activity (Mus musculus [9])	Activity (Mus musculus [10])	Activity (Mus musculus [11])	Activity (Mus musculus [12])	Activity (Mus musculus [13])	Activity (Mus musculus [14])	Activity (Mus musculus [15])	Activity (Mus musculus [16])	Activity (Mus musculus [17])	Activity (Mus musculus [18])	Ki [19]	Activity (Rattus norvegicus [3])	Activity (Rattus norvegicus [21])	also measured
CC(CO)(CO)NCC(O)COc1cccc2c(=O)c3ccccc3oc12.Cl (centres undefined)	1.75 mg/kg	49.8 µM	inactive	inactive	inactive	inactive	inactive	inactive	inactive	Non-toxic	Non-toxic	25%	Non-toxic	Non-toxic	Non-toxic	0.004 µM	–	–	Activity (Rattus norvegicus [1]): 13%; Activity (Rattus norvegicus [2]): Toxic; Activity (Rattus norvegicus [4]): inactive
CC(C)NCC(O)COc1cccc2ccccc12 (centres undefined) [PROPRANOLOL]	1.05 mg/kg	–	–	–	–	–	–	–	–	–	–	–	–	–	–	–	–	–	–
CC(CO)(CO)NCC(O)COc1cccc2c(=O)c3ccc(Cl)cc3oc12.Cl (centres undefined)	–	20.6 µM	inactive	inactive	inactive	inactive	inactive	inactive	inactive	Non-toxic	Non-toxic	Non-toxic	–	Non-toxic	–	0.047 µM	Active	–	Activity (Rattus norvegicus [1]): 21%; Activity (Rattus norvegicus [4]): inactive
C=CCNCC(O)COc1ccc2c(=O)c3ccccc3oc2c1.Cl (centres undefined)	–	8.1 µM	inactive	–	Active	inactive	inactive	Active	inactive	Non-toxic	Non-toxic	Toxic	Non-toxic	Non-toxic	Non-toxic	44.4 µM	Active	–	Activity (Rattus norvegicus [20]): Active
C=CCNCCCOc1cccc2c(=O)c3ccccc3oc12.Cl	–	4.6 µM	inactive	inactive	–	inactive	inactive	–	inactive	Non-toxic	–	Toxic	Non-toxic	Non-toxic	–	7.7 µM	Active	20%	Activity (Rattus norvegicus [22]): Toxic
CC(C)(CO)NCCCOc1cccc2c(=O)c3ccccc3oc12.Cl	–	8.7 µM	inactive	inactive	inactive	inactive	inactive	inactive	inactive	Non-toxic	Non-toxic	25%	Non-toxic	Non-toxic	Non-toxic	2.6 µM	Active	15%	Activity (Rattus norvegicus [22]): Toxic; Activity (Rattus norvegicus [20]): Active
CC(C)(CO)NCC(O)COc1cccc2c(=O)c3ccc(Cl)cc3oc12.Cl (centres undefined)	2.46 mg/kg	5.6 µM	inactive	inactive	inactive	inactive	inactive	inactive	inactive	–	–	Toxic	Non-toxic	–	Toxic	0.011 µM	–	30%	Activity (Rattus norvegicus [23]): 13%; Activity (Rattus norvegicus [24]): 60%; Activity (Rattus norvegicus [25]): Active; Activity (Rattus norvegicus [26]): 17%; Activity (Rattus norvegicus [27]): 19%
